Where two headings read alike, the source gives them in different places.
Tests used:
[1] = Absorption spectra; format: physicochemical; details: for ε at absorption maximum: 385 nm; for ε at absorption maximum / absorption maximum: aqueous dioxane or acetonitrile
Description: (§1) For the ester ε=5600 M^−1 cm^−1, while the acid has ε=4200 M^−1 cm^−1. For preparative photolyses Pyrex-filtered light from a Hanovia medium pressure mercury lamp was used. A sunlamp was also effective at photolysing all of the compounds in the study. Quantum yields were determined at 390 nm using a monochromator for wavelength selection utilizing a high pressure mercury lamp as the light source.
Photoproduct 26 was identified by ^1H NMR spectroscopy and elemental analysis. […] Regioisomer 28 would have shown only four vicinal couplings in the COSY spectrum. […] The compound was obtainable only as a powder, despite repeated attempts to obtain crystals for structure determination using X-ray diffraction.

[2] = Product quantum yield determination for photochemical leaving group expulsion at 390 nm; format: physicochemical; details: for product quantum yield Φ: N2 saturated 19% H2O in dioxane containing 100 mM buffer (1.8×10^−3 M for 8; similar conditions for 7), products quantified by NMR; for quantum yield Φ for formation of 27: 2.0×10^−3 M acid in N2 saturated 75% aq buffer in CH3CN
Description: as §1
A semi-micro optical bench was used for quantum yield determinations, similar to the apparatus described by Zimmerman.^32 Light from a 200 W high-pressure mercury lamp was passed through an Oriel monochromator, which was set to 390 nm wavelengths. The light was collimated through a lens. A fraction of the light was diverted 90° by a beam splitter to a 10×3.6 cm side quartz cylindrical cell containing an actinometer. The photolysate was contained in a 10×1.8 cm quartz cylindrical cell of 25 mL volume. The concentrations of the reactants were 0.0018-0.0030 M. All quantum yields reported herein were the average of two or more independent runs. Behind the photolysate was mounted a quartz cylindrical cell containing 25 mL of actinometer. Light output was monitored by ferrioxalate actinometery using the splitting ratio technique.
For 7 (LG^−=Cl^−), 8 (LG^−=Cl^−), and 10 (LG^−=Cl^−) 50 mL of water was added to the photolysate, and the diluted photolysate was extracted four times with 30 mL of CH2Cl2. The combined extracts were washed twice with 30 mL water, brine, and concentrated in vacuo. The residue was dissolved in d6-DMSO. DMF was added as a standard for NMR analyses (vide infra). However, for 7 (LG^−=Cl^−) the NMR solvent was CDCl3 and the NMR standard was DMSO.
For 9 (LG^−=Cl^−, PhS^−, HS^−, PhCH2S^−) the photolysate was adjusted to pH 2 by addition of 3 N HCl. The resultant precipitate was collected by suction filtration and washed with 50 mL water. The precipitate was transferred to a flask, and any untransferred precipitate was dissolved in DMSO and combined with the transferred precipitate. The DMSO was evaporated to dryness under vacuum and DMSO-d6 was added along with DMF as a standard for NMR analysis.
Products were analyzed by ^1H NMR spectroscopy using DMF or DMSO as the internal standard and conversions were 12-16%. At the concentrations used most of the incident light would have been absorbed near the front face of the photolysis cell, raising the concern that the photoproducts formed during the photolyses could competitively absorb the incident light, reducing the light absorbed by the reactants. This internal filter effect would depress the observed Φ values below the actual values. In the case of 8 (LG^−=Cl^−) the Φ was thus redetermined at an 18-fold lower concentration of 1.0×10^−4 M of reactant and found to be within experimental error of the value obtained at higher concentration at 14% conversions for duplicate runs. Due to the very low concentrations of the photoproduct 26 formed, it had to be quantified by absorption spectroscopy of the exposed photolysates without any workup. The product absorption at 432 nm was deconvoluted from the tailing absorption of reactant using Origin 8.6 software (OriginLab). After deconvolution, concentrations were obtained from a calibration curve constructed from known mixtures of reactant and product.

[3] = Preparative photolysis with Pyrex-filtered Hanovia medium pressure mercury lamp, products quantified by NMR; format: physicochemical; details: for chemical yield of leaving group expulsion / photoproduct formation in preparative photolysis: N2 saturated aqueous 100 mM phosphate buffer (pH 7) in CH3CN, NMR integration
Description: as §1
Similarly, preparative photolysis of […] acid 9 (LG^−=Cl^−) in N2 saturated 75% H2O in CH3CN containing 100 mM phosphate buffer (pH 7) gave the single regioisomeric photoproduct 27 in 98% yield by NMR integration, as above for 8 (LG^−=Cl^−). The regiospecificity was again established by 600 MHz ^1H NMR COSY. […] Photolysis of acid 9 (LG^−=PhS^−, HS^−, PhCH2S^−) under the same conditions as 8 (LG^−=Cl^−) also gave photoproduct 27 in 98-100% yields upon expulsion of these thiolate leaving groups. For acid 9 (LG^−=PhCH2S^−) the released benzyl thiol was quantified in photolyses of 4.5×10^−3 M solutions of 35% D2O in CD3CN containing phosphate buffer (as above) contained in NMR tubes. Yields were 96% thiol and 99% of 27 at 100% conversion of reactant by ^1H NMR spectroscopy. Very similar results were found when DMSO-d6 was the photolysis solvent.
The regiospecific formation of 26 or 27 in the preparative photolyses of ester 8 or acids 9 requires the presence of the ester and carboxylic acid substituents attached to the C-6 position of the benzothiophene ring system of the reactants. In contrast, photolyses of the unsubstituted benzothiophene ring system 7 (LG^−=Cl^−) in 16% water containing 100 mM phosphate buffer in CH3CN gave both regioisomeric photoproducts 30 and 31 as a 42:58 mixture, respectively, in 100% yield according to 400 MHz ^1H NMR spectroscopy (Scheme 6).
To determine whether a “heavy atom effect” promoted intersystem crossing of the singlet excited state to the triplet excited state, work focused upon the C-7 bromide of thioxanthone ester 10 (LG^−=Cl^−). Preparative photolysis of ester 10 in N2 saturated 19% H2O in CH3CN containing 100 mM phosphate buffer (pH 7), as above for ester 8 (LG^−=Cl^−), exclusively gave regioisomer 32 in 99% yield, and 33 was not observed by ^1H NMR spectroscopy of the photolysate (Scheme 7).
A 0.010 M solution of 8 (LG^−=Cl^−) in N2 saturated 17% H2O in CH3CN containing 100 mM phosphate buffer at pH 7 was irradiated with a 450 W Hanovia medium pressure mercury lamp with a Pyrex filter for 90 min. The photoproduct was isolated by filtration. The photoproduct was washed with H2O and a small amount of CHCl3 and dried under vacuum. The product was a yellow powder, mp >300° C. […] A COSY spectrum in d6-DMSO was obtained (see Supporting Information).
A 0.010 M solution of 13 (LG^−=Cl^−) in N2 saturated 75% H2O in CH3CN containing 100 mM phosphate buffer at pH 7 was irradiated with a 450 W Hanovia medium pressure mercury lamp with Pyrex filter for 90 min. The photolysate was acidified to pH 2 with conc. HCl to precipitate the photoproduct carboxylic acid 27. The photoproduct was obtained by filtration, washing with H2O, and drying under vacuum, as a yellow powder, mp >300° C.
A 0.010 M solution of 7 (LG^−=Cl^−) in N2 saturated 17% H2O in CH3CN containing 100 mM phosphate buffer at pH 7 was irradiated with a 450 W Hanovia medium pressure mercury lamp with a Pyrex filter for 90 min. The photoproduct was isolated by filtration as a mixture of two isomers, 30, 31. The mixture of product isomers was dissolved in hot DMSO. Solid photoproduct isomer 31 was obtained upon cooling of the hot DMSO and filtration. Photoproduct isomer 31 was washed with water and methanol and dried under vacuum to obtain 31 as floppy powder, mp >300° C. Solid photoproduct isomer 30 was obtained upon addition of water to the above DMSO filtrate by filtration, after washing with water and methanol. The photoproduct isomer 30 was crystallized from CHCl3 to give a yellow crystalline solid, mp 271-273° C. […]

[4] = Photolysis with 120 W sunlamp for 72 h; format: physicochemical; details: gives exclusively product 26 or 27
Description: The photolyses of ester 8 (LG^−=Cl^−) and acids 9 (LG^−=Cl^−, PhS^−, HS^−, PhCH2S) were repeated with a 120 W sunlamp for 72 h under otherwise the same conditions described above for the Hanovia runs.

[5] = Stern-Volmer quenching of the photoreaction by piperylene; format: physicochemical
Excerpt: In air-saturated solution quantum yields for ester 8 (LG^−=Cl^−) decreased to Φ=0.019. […] Furthermore, quenching by 9.2-37×10^−[…] piperylene as quencher Q gave a slope kqτ=7.03×10^4 M^−1 for a Stern-Volmer plot Φ°/Φ vs. [Q](data not shown). If it is assumed that kq=ca. 10^10 M^−1 s^−1, then τ would be ca. 7 μs.

[6] = cited from earlier work
[7] = 4.5×10^−3 M in 35% D2O in CD3CN containing phosphate buffer, 100% conversion, 1H NMR

Compound	product quantum yield Φ ([2]; 390 nm)	chemical yield of leaving group expulsion / photoproduct formation in preparative photolysis [3]	leaving group expulsion with sunlamp [4]	quantum yield Φ for formation of 27 ([2]; 390 nm)	melting point	further results
6-methylcarboxylate-[1]benzothiopheno[2,3-c]benzo[a]anthracene-4-methyl-4H-7-thia-4-aza-3,12-dione [compound 26]						ε at long wavelength maximum ([1]; 432 nm, aq dioxane containing phosphate buffer): 10300 M⁻¹ cm⁻¹; long wavelength absorption maximum ([1]; aq dioxane containing phosphate buffer): 432 nm
COC(=O)c1ccc2c(Cl)c(C(=O)N(C)c3ccc4sc5ccccc5c(=O)c4c3)sc2c1 [8 (LG^−=Cl^−), 3-chloro-2-[methyl-(9-oxo-9H-thiozanthen-2-yl)-carbamoyl]-benzo[b]thiophene-6-carboxylic acid methyl ester]	0.039	nearly quantitative	essentially quantitatively			quantum yield Φ for photoproduct 26 ([2]; 390 nm, reactant concentration 1.0×10^−4 M, photoproduct quantified by absorption spectroscopy): 0.037; quantum yield Φ ([2]; air-saturated solution): 0.019; quantum yields for reaction (photorelease of leaving group), overall ([2]; depending on LG^− basicity or reactant concentration): 0.037-0.039; ε at absorption maximum [1]: 5600 M⁻¹ cm⁻¹; absorption maximum [1]: 385 nm; Stern-Volmer slope kqτ ([5]; 9.2-37×10^−6 M piperylene as quencher, plot Φ°/Φ vs. [Q]): 70300 M⁻¹; triplet excited state lifetime τ ([5]; assuming kq=ca. 10^10 M^−1 s^−1): ca. 7 μs
CN(C(=O)c1sc2cc(C(=O)O)ccc2c1S)c1ccc2sc3ccccc3c(=O)c2c1 [9 (LG^−=HS^−), 3-mercapto-2-[methyl-(9-oxo-9H-thioxanthen-2-yl)-carbamoyl]-benzo[b]thiophene-6-carboxylic acid]			essentially quantitatively	0.0079	210 to 212 °C	
COC(=O)c1ccc2c(Cl)c(C(=O)N(C)c3ccc4sc5ccc(Br)cc5c(=O)c4c3)sc2c1 [10 (LG^−=Cl^−), 2-[(7-bromo-9-oxo-9H-thioxanthen-2-yl)-methyl-carbamoyl]-3-chloro-benzo[b]thiophene-6-carboxylic acid methyl ester]	0.053	99%			237 to 239 °C	quantum yield higher than Φ=0.039 of ester 8 (LG^−=Cl^−) ([2]; bromo ester 10 vs ester 8): 38%
O=c1c2ccccc2sc2ccccc12 [thioxanthone]						triplet lifetime ([6]; in CH3CN): 6.7 μs; triplet yield ([6]; nonpolar hydrocarbon solvent (cyclohexane)): 0.85; triplet lifetime ([6]; polar protic solvent (methanol)): 13.3 μs; triplet yield ([6]; polar, protic solvent (CH3OH)): 0.56

Now from value to compound, other results behind:

product quantum yield Φ ([2]; 390 nm)	chemical yield of leaving group expulsion / photoproduct formation in preparative photolysis [3]	leaving group expulsion with sunlamp [4]	quantum yield Φ for formation of 27 ([2]; 390 nm)	melting point	Compound	further results
0.069	100%				CN(C(=O)c1sc2ccccc2c1Cl)c1ccc2sc3ccccc3c(=O)c2c1 [7 (LG^−=Cl^−), 3-chloro-benzo[b]thiophene-2-carboxylic acid methyl-(9-oxo-9H-thioxanthen-2-yl)amide]	
	98%	essentially quantitatively	0.034	286 to 287 °C	CN(C(=O)c1sc2cc(C(=O)O)ccc2c1Cl)c1ccc2sc3ccccc3c(=O)c2c1 [9 (LG^−=Cl^−), 3-chloro-2-[methyl-(9-oxo-9H-thioxanthen-2-yl)-carbamoyl]-benzo[b]thiophene-6-carboxylic acid]	ε at absorption maximum [1]: 4200 M⁻¹ cm⁻¹; absorption maximum [1]: 385 nm
		essentially quantitatively	0.011	151 to 152 °C	CN(C(=O)c1sc2cc(C(=O)O)ccc2c1SCc1ccccc1)c1ccc2sc3ccccc3c(=O)c2c1 [9 (LG^−=PhCH2S^−), 3-benzylsulfanyl-2-[methyl-(9-oxo-9H-thioxanthen-2-yl)-carbamoyl]-benzo[b]thiophene-6-carboxylic acid]	yield of 27 [3, 7]: 99%; yield of released benzyl thiol [3, 7]: 96%
		essentially quantitatively	0.017	278 to 279 °C	CN(C(=O)c1sc2cc(C(=O)O)ccc2c1Sc1ccccc1)c1ccc2sc3ccccc3c(=O)c2c1 [9 (LG^−=PhS^−), 2-[methyl-(9-oxo-9H-thioxanthen-2-yl)-carbamoyl]-3-phenylsulfanyl-benzo[b]thiophene-6-carboxylic acid]	
